How the values were obtained:
[1] = test system: patient diagnosed with post-traumatic stress disorder (PTSD); test: higher dose titration schedule of nalmefene in patients diagnosed with PTSD; assay type: in vivo, human
Description: One object of the subject invention is to provide improved benefit to patients diagnosed with PTSD, by employing a higher dose titration schedule for the administration of nalmefene. In accordance with the nalmefene dosing titration schedule of the subject invention, nalmefene is administered at a higher initial dose than the dosing schedule published in the pilot study, and administering nalmefene at the same, higher dose increments at regular intervals described above. Specifically, the subject invention comprises administering nalmefene orally to a PTSD patient at an initial dose of 100 milligrams per day, preferably using 50 milligram doses, twice a day, with increases every 3-4 days of 100 mg per day (50 milligrams twice a day), not to exceed 1000 mg per day (500 mg twice a day).
The subject invention comprises administering, on a dosing titration schedule, nalmefene, to a patient diagnosed with post-traumatic stress disorder (PTSD), using • a starting dose of 100 mg per day, preferably in divided doses of 50 mg twice per day; and • increasing the dose by 100-150 mg per day, every 2-5 days, up to a maximum daily dose of 1000 mg, per day.
Each increase is preferably 100 mg per day, at a divided dose of 50 mg twice per day.
An optimum dose of nalmefene, wherein PTSD symptoms are reduced or reversed, can be achieved within 2-3 weeks for individuals diagnosed with PTSD. The reduced or reversed. PTSD symptoms are based on both clinical observation of the patient and on reporting of reduced or reversed symptoms by the patient.

[2] = test system: combat veterans diagnosed with post-traumatic stress disorder (PTSD); details: 18 combat veterans with PTSD; 1 mg twice a day up to 200 mg twice a day; cited from earlier work
[3] = test system: respiratory depression produced by opiate overdose; details: cited from earlier work
liver = details: compared with naltrexone; cited from earlier work
[4] = compared with naltrexone; cited from earlier work
[5] = dosing administration schedule of the invention

**Q.** For C=C1CC[C@@]2(O)[C@H]3Cc4ccc(O)c5c4[C@@]2(CCN3CC2CC2)[C@H]1O5 [nalmefene], which “adverse reaction with large dose increments” value ([1]; dose increments significantly greater than 50 milligrams twice a day) is on record?
**A.** frequent and intense mood swings

**Q.** What about the “occurrence of fluctuating mood states (anxiety, hostility and rage, depression, paranoia) with dose increases” value [1, 5] of the same compound?
**A.** successful in avoiding the occurrence of fluctuating mood states

**Q.** And the “time to stabilization of mental state of the PTSD patient” value [1, 5]?
**A.** stabilized in a much briefer period of time

**Q.** And the “emergence of opiate withdrawal symptoms” value ([1]; higher dose of at least 50 mgs twice a day)?
**A.** unexpectedly bypassed the emergence of opiate withdrawal symptoms

**Q.** What about the “time to achieve optimum dose, wherein PTSD symptoms are reduced or reversed” value ([1]; higher dose titration schedule, clinical observation and patient reporting) of the same compound?
**A.** 2-3 weeks

**Q.** And the “core symptoms of PTSD (nightmares, intrusive thoughts, flashbacks, avoidance, dissociative amnesia, mistrust, hyper arousal)” value [2]?
**A.** significantly improve all core symptoms of PTSD

**Q.** And the “symptom of emotional numbness” value [2]?
**A.** significantly reduce, and in some cases remit

**Q.** What about the “additional benefit in opiate overdose at higher doses” value ([3]; intravenous doses greater than 1.5 mg) of the same compound?
**A.** do not appear to give any greater benefit

**Q.** And the “counteracting respiratory depression produced by opiate overdose” value ([3]; intravenous doses)?
**A.** effective

**Q.** What about the dose-dependent liver toxicity (liver) of the same compound?
**A.** no observed dose-dependent liver toxicity

**Q.** And the “half-life relative to naltrexone” value [4]?
**A.** longer half-life
